The assay concerns 186277-243-T-J2-PDC complex spheroid viability. In words: Anticancer human tumor 186277-243-T-J2-PDC patient-derived colon adenocarcinoma cell line growth inhibition. The following applies: for viability, T/C: stronger effect = lower value. The procedure, abridged: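 Complex spheroids of tumor cells with HUVEC and human MSCs, exposed to iadademstat combined with other agents. Each agent tested in half-log steps from near clinical Cmax (else 10 microM top), DMSO ≤0.25%.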

[1] abbreviates: curve of first compound, second compound 0.1 µM.
Setting [2] is: curve of first compound, second compound 0.316 µM.
Setting [3] is: curve of first compound, second compound 1 µM.
[4] abbreviates: curve of first compound, second compound 3.16 µM.
[5] abbreviates: curve of first compound, second compound 10 µM.
Setting [6] is: second compound 0.1 µM, first compound 0.00949 µM.
[7] abbreviates: second compound 0.1 µM, first compound 0.03 µM.
The mark [8] stands for this setting: second compound 0.1 µM, first compound 0.0949 µM.
Setting [9] is: second compound 0.1 µM, first compound 0.3 µM.
Setting [10] is: second compound 0.1 µM, first compound 0.949 µM.
Where [11] appears, read: second compound 0.1 µM, first compound 3 µM.
Setting [12] is: second compound 0.316 µM, first compound 0.00949 µM.
Where [13] appears, read: second compound 0.316 µM, first compound 0.03 µM.
The mark [14] stands for this setting: second compound 0.316 µM, first compound 0.0949 µM.
The mark [15] stands for this setting: second compound 0.316 µM, first compound 0.3 µM.
The mark [16] stands for this setting: second compound 0.316 µM, first compound 0.949 µM.
The mark [17] stands for this setting: second compound 0.316 µM, first compound 3 µM.
Setting [18] is: second compound 1 µM, first compound 0.00949 µM.
Where [19] appears, read: second compound 1 µM, first compound 0.03 µM.
Setting [20] is: second compound 1 µM, first compound 0.0949 µM.
Setting [21] is: second compound 1 µM, first compound 0.3 µM.
Setting [22] is: second compound 1 µM, first compound 0.949 µM.
Setting [23] is: second compound 1 µM, first compound 3 µM.
The mark [24] stands for this setting: second compound 3.16 µM, first compound 0.00949 µM.
Setting [25] is: second compound 3.16 µM, first compound 0.03 µM.
[26] abbreviates: second compound 3.16 µM, first compound 0.0949 µM.
Setting [27] is: second compound 3.16 µM, first compound 0.3 µM.
The mark [28] stands for this setting: second compound 3.16 µM, first compound 0.949 µM.
The mark [29] stands for this setting: second compound 3.16 µM, first compound 3 µM.
Setting [30] is: second compound 10 µM, first compound 0.00949 µM.
The mark [31] stands for this setting: second compound 10 µM, first compound 0.03 µM.
Setting [32] is: second compound 10 µM, first compound 0.0949 µM.
[33] abbreviates: second compound 10 µM, first compound 0.3 µM.
Setting [34] is: second compound 10 µM, first compound 0.949 µM.
Setting [35] is: second compound 10 µM, first compound 3 µM.

The record followed here is PubChem BioAssay AID1918933 (Molecular Pharmacology Branch, DTP, NCI, 2023).

“And” between values parts separate entries of the source, which are not always exact repeats. Equal entries are not always repeated.

As a reminder, the IC50 is the concentration that inhibits the measured activity by half. The term viability, T/C denotes the ratio of treated to control.
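Note: 7 day exposure to compounds.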
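Throughout, for viability, T/C: 100% = DMSO vehicle control viability.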

In the case of `CCN(c1cc(-c2ccc(CN3CCOCC3)cc2)cc(C(=O)NCc2c(C)cc(C)[nH]c2=O)c1C)C1CCOCC1` + NC1CCC(NC2CC2c2ccccc2)CC1, the IC50 reads like this: under setting [1], more than 3 µM; under setting [2], more than 3 µM; under setting [3], more than 3 µM; under setting [4], more than 3 µM; under setting [5], more than 3 µM. In addition, the viability, T/C by setting is: under setting [6], 108%; under setting [7], 94%; under setting [8], 108%; under setting [9], 116%; under setting [10], 105%; under setting [11], 110%. In addition, the viability, T/C was 112% under setting [12]; 102% under setting [13]; 110% under setting [14]; 112% under setting [15]; 113% under setting [16]; 113% under setting [17]. Moreover, the viability, T/C is, setting by setting: under setting [18], 122%; under setting [19], 121%; under setting [20], 108%; under setting [21], 111%; under setting [22], 111%; under setting [23], 102%. Also, the viability, T/C reads like this: under setting [24], 110%; under setting [25], 115%; under setting [26], 107%; under setting [27], 117%; under setting [28], 121%; under setting [29], 111%. Further, the viability, T/C under setting [30] was 105%; the viability, T/C under setting [31] is 94.8%; the viability, T/C under setting [32] was 95.9%; the viability, T/C under setting [33] is 107%; the viability, T/C under setting [34] was 109%; the viability, T/C under setting [35] is 98.3%.

As to `COc1cc(C2c3cc4c(cc3C(OC3OC5COC(C)OC5C(O)C3O)C3COC(=O)C23)OCO4)cc(OC)c1O` (centres undefined) + NC1CC1c1ccc(-c2cccc(O)c2)cc1, the IC50 worked out at 0.596 µM under setting [1]; 0.586 µM under setting [2]; 0.667 µM under setting [3]; 0.635 µM under setting [4]; 0.458 µM under setting [5]. Further, the viability, T/C by setting is: under setting [6], 107%; under setting [7], 134%; under setting [8], 116%; under setting [9], 73.7%; under setting [10], 36.2%; under setting [11], 17.4%. Besides, the viability, T/C runs as follows: under setting [12], 103%; under setting [13], 134%; under setting [14], 118%; under setting [15], 73%; under setting [16], 36.6%; under setting [17], 18%. For the same compound, the viability, T/C is 99.7% under setting [18]; 134% under setting [19]; 121% under setting [20]; 80.9% under setting [21]; 38.6% under setting [22]; 17.7% under setting [23]. For the same compound, the viability, T/C is 100% under setting [24]; 137% under setting [25]; 133% under setting [26]; 79% under setting [27]; 39.9% under setting [28]; 17.4% under setting [29]. For the same compound, the viability, T/C is 94.3% under setting [30]; 146% under setting [31]; 119% under setting [32]; 64.1% under setting [33]; 29.9% under setting [34]; 11.2% under setting [35].

Turning to `Cn1ncnc1C1c2n[nH]c(=O)c3cc(F)cc(c23)NC1c1ccc(F)cc1` (centres undefined), the viability, T/C was 101% and 106% (compound 0.000316 µM); 98.5% and 98% (compound 0.001 µM); 97.8% and 95.2% (compound 0.00316 µM); 97.5% and 93.7% (compound 0.01 µM); 94.1% and 101% (compound 0.0316 µM); 97.3% and 108% (compound 0.1 µM). Moreover, the IC50 (curve of compound) was more than 0.1 µM.

`CC[C@@]1(O)C(=O)OCc2c1cc1n(c2=O)Cc2cc3c(CN(C)C)c(O)ccc3nc2-1`: the viability, T/C is, setting by setting: (compound 0.000316 µM) 113% and 102%; (compound 0.001 µM) 101% and 98%; (compound 0.00316 µM) 95.7% and 113%; (compound 0.01 µM) 93.4% and 118%; (compound 0.0316 µM) 74.8% and 75.9%; (compound 0.1 µM) 41.5% and 30.9%. For the setting “curve of compound”, the IC50 is 0.0759 µM and 0.0613 µM.

In the case of `Nc1ccn(C2OC(CO)C(O)C2(F)F)c(=O)n1` (centres undefined) + NC1CC1c1ccc(-c2cccc(O)c2)cc1, the 50% inhibitory concentration (IC50) is, setting by setting: under setting [1], 0.00241 µM; under setting [2], 0.00218 µM; under setting [3], 0.00252 µM; under setting [4], 0.00231 µM; under setting [5], 0.00234 µM. Also, the viability, T/C runs as follows: (second compound 0.1 µM, first compound 0.000949 µM) 112%; (second compound 0.1 µM, first compound 0.003 µM) 35.5%; under setting [6], 14.2%; under setting [7], 11.6%; under setting [8], 12.2%; under setting [9], 13.4%. In addition, the viability, T/C by setting is: (second compound 0.316 µM, first compound 0.000949 µM) 103%; (second compound 0.316 µM, first compound 0.003 µM) 29.9%; under setting [12], 14.5%; under setting [13], 12%; under setting [14], 12.2%; under setting [15], 12.8%. Besides, the viability, T/C is, setting by setting: (second compound 1 µM, first compound 0.000949 µM) 116%; (second compound 1 µM, first compound 0.003 µM) 38.4%; under setting [18], 14.9%; under setting [19], 12.2%; under setting [20], 11.9%; under setting [21], 13.6%. Also, the viability, T/C is 103% (second compound 3.16 µM, first compound 0.000949 µM); 34.3% (second compound 3.16 µM, first compound 0.003 µM); 15.8% under setting [24]; 11.7% under setting [25]; 13.8% under setting [26]; 13.4% under setting [27]. The viability, T/C reads like this: (second compound 10 µM, first compound 0.000949 µM) 98.2%; (second compound 10 µM, first compound 0.003 µM) 36.7%; under setting [30], 15.5%; under setting [31], 11.2%; under setting [32], 12.7%; under setting [33], 13.5%.
